What was measured:
HEp2 cells [1] = test: Dark cytotoxicity, CellTiter Blue assay; format: cell-based, human; settings: 24 h incubation, up to 200 µM, darkness
Procedure: The dark toxicity of all compounds was determined in HEp2 cells at concentrations up to 200 µM, using a CellTiter Blue (CTB) assay to determine cell viability. BODIPYs 1 and 2 (lacking peptide) were included in this study for comparison purposes. […] This might be a result of the presence of the indole group, since it is a known pharmacophore and the basis of many drugs, such as indomethacin [44, 49].
(§1) For cellular studies, commercially available reagents and culture media were purchased from Life Technologies (Carlsbad, CA, USA) and human carcinoma HEp2 (ATCC CCL-23) cells were purchased from the American Type Culture Collection (ATCC) (Manassas, Virginia, USA). HEp2 cells were cultured and maintained at 37 °C under 5% CO2 and 95% humidity in minimum essential media (MEM) supplemented with 10% fetal bovine serum (FBS) and 1% penicillin-streptomycin (P/S).
Stock solutions (32 mM) for compounds 1, 2, 3, 4, and 5 were prepared using 100% DMSO as the solvent. […] Following the incubation period, cell viability was assessed by determining fluorescence intensity at 570/615 nm using a BMG FLUOstar Optima microplate reader (BMG Labtech, Cary, NC, USA). The fluorescence intensity was normalized to 100% for untreated cells and the results are expressed as a percentage of viable cells.

HEp2 cells [2] = test: Phototoxicity (~1 J·cm^−2), CellTiter Blue assay; format: cell-based, human; settings: up to 100 µM, light dose ~1 J·cm^−2, CellTiter Blue
Procedure: In addition to dark toxicity, phototoxicity was assessed for the BODIPYs and their conjugates, under a low light dose of ~1 J·cm^−2 in human carcinoma HEp2 cells using the CTB assay to determine cell viability. Dose-dependent cell survival curves of each compound over the incubation period of 24 h are shown in Figure S20 (Supporting Information). […] Nevertheless, all conjugates are considered to have low phototoxicity in HEp2 cells at the low light dose used in this study.
as §1
HEp2 cells were exposed to working solutions of each compound up to 100 µM (0, 3.125, 6.25, 12.5, 25, 50, and 100 µM) and incubated for 24 h (5% CO2, 95% humidity, 37 °C). The loading medium was removed and the cells were washed with PBS solution. […] Cell viability was assessed as described above.

HT-29 cells = test: Competitive binding of conjugate 5 with cycloL1.1, BODIPY fluorescence; format: cell-based; settings: HT-29 (~78% EGFR expression); conjugate 5 at 50 μM, cyclo(K(N3)larllt) 0.25 to 100 μM, 45 min, 37 °C, PBS; ex 614 / em 648 nm; triplicate
Procedure: In these studies, HT-29 (~78% EGFR expression), DLD-1 (~40% EGFR expression), and LOVO (~6% EGFR expression) were used.
Cells HT-29 (~78% EGFR) DLD-1 (~37% EGFR) and LOVO (~6% EGFR) with high, moderate, and low EGFR expressions, respectively, were used in these studies. About ten thousand cells of each cell line were coated in a 96 well clear bottom tissue culture black plate and incubated overnight at 37 °C with 5% CO2. […] PBS was used for dilution of compounds. The plate was then covered in aluminum foil and incubated at 37 °C with 5% CO2. After 45 min, each well was washed twice with 100 μL of PBS, and fluorescence was determined with a microplate reader using an excitation wavelength of 614 nm and an emission wavelength of 648 nm. Autofluorescence values were subtracted from each well. A plot of concentrations vs. relative fluorescence was plotted. Results in Figure 4 are expressed as ±S.E.

[3] = cited from earlier work
Source text: (§2) We have previously reported the conjugation of BODIPYs to the EGFR-L1 peptide via traditional amidation reactions, and nucleophilic additions to isothiocyanato-functionalized fluorophores. Herein we report the use of click chemistry for conjugation of two EGFR-L1-derived peptides bearing an azide N-terminus (cycloL1.1 and L1.5) to alkynyl-functionalized BODIPYs. […] In previous work, we reported the conjugation of this peptide to a porphyrin [19], phthalocyanine, and BODIPY dyes, using either traditional amidation methodologies or nucleophilic addition to isothiocyanato-functionalized fluorophores. […] In order ...

[4] = system: extracellular domain of EGFR; settings: cited from earlier work; for affinity for EGFR (in words): binding to domain I of the extracellular domain of EGFR
Source text: as §2

Compound	stability in human serum (in words) [3]	affinity for EGFR (in words) [4]	also measured
CCC1=C(C)C2=C(c3ccc(OCc4cn(CCCC[C@H](N)C(=O)N[C@@H](CC(C)C)C(=O)N[C@@H](C)C(=O)N[C@@H](CCCNC(=N)N)C(=O)N[C@@H](CC(C)C)C(=O)N[C@@H](CC(C)C)C(=O)N[C@H](C(N)=O)[C@@H](C)O)nn4)cc3)c3c(C)c(CC)c(C)n3[B-](F)(F)[N+]2=C1C [Conjugate 3, 1,3,5,7-tetramethyl-2,6-diethyl-8-(4-phenoxymethyltriazole K(N3)LARLLT)-BODIPY]			dark toxicity, ranking in words (HEp2 cells [1]): least toxic; phototoxicity, ranking in words (HEp2 cells [2]): least toxic
CC(C)C[C@H]1NC(=O)[C@H](CCCCN=[N+]=[N-])NC(=O)[C@@H]([C@H](C)O)NC(=O)[C@@H](CC(C)C)NC(=O)[C@@H](CC(C)C)NC(=O)[C@@H](CCCNC(=N)N)NC(=O)[C@@H](C)NC1=O [cycloL1.1, cyclo(K(N3)larllt)]	enhanced stability in human serum	high affinity	competitive binding: change of BODIPY fluorescence intensity with added cyclic peptide (HT-29 cells): able to replace conjugate 5 competitively
K(N3)LARLLT [Conjugate L1.5, linear EGFR-L1-derived azido peptide]	enhanced stability in human serum	increased affinity for EGFR compared to the parent peptide	
LARLLT [EGFR-L1, EGFR-targeting peptide ligand reported in 2009 by Song et al, reference compound]			affinity for the extracellular domain of EGFR (in words) ([4]; both in vitro and in vivo): high affinity
